Test results taken from patent publication US6689773B2, “Uracil substituted phenyl sulfamoyl carboxamides” (BASF Aktiengesellschaft, priority 2000, dated 2004).

Key:
Type in all cases: in vivo
[1] = tested on: ABUTH, Velvetleaf, Abutilon theophrasti, Medic.; test: Postemergence herbicidal evaluation (Example 147); conditions: rating scale 0-9, two to three weeks after treatment
Outline: (§1)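 Values are 0-9 visual scores, averaged over repeat tests where available. Seedlings of about two weeks were sprayed with roughly 0.016 to 0.032 kg/ha in 80/20 acetone/water plus 1.0% seed oil, then held in the greenhouse two to three weeks.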

[2] = tested on: ALOMY, Blackgrass, Alopecurus myosuroides; test: Postemergence herbicidal evaluation (Example 147); conditions: rating scale 0-9, two to three weeks after treatment
Outline: as §1

[3] = tested on: AMBEL, Ragweed, Common, Ambrosia artemiisifolia, L.; test: Postemergence herbicidal evaluation (Example 147); conditions: rating scale 0-9, two to three weeks after treatment
Outline: as §1

[4] = tested on: CHEAL, Lambsquarters, Chenopodium album, L. Common; test: Postemergence herbicidal evaluation (Example 147); conditions: rating scale 0-9, two to three weeks after treatment
Outline: as §1

[5] = tested on: DIGSA, Crabgrass, (Hairy) L, Digitaria sanguinalis, (L)Scop; test: Postemergence herbicidal evaluation (Example 147); conditions: rating scale 0-9, two to three weeks after treatment
Outline: as §1

[6] = tested on: ECHCG, Barnyardgrass, Echinochloa crusgalli, (L.)Beau; test: Postemergence herbicidal evaluation (Example 147); conditions: rating scale 0-9, two to three weeks after treatment
Outline: as §1

[7] = tested on: GLXMA, Soybean, Glycine max, (L.) Merr.; test: Postemergence herbicidal evaluation (Example 147); conditions: rating scale 0-9, two to three weeks after treatment
Outline: as §1

[8] = tested on: IPOHE, Morningglory, Ivyleaf, Ipomoea hederacea, (L)Jacq.; test: Postemergence herbicidal evaluation (Example 147); conditions: rating scale 0-9, two to three weeks after treatment
Outline: as §1

[9] = tested on: SETVI, Green foxtail, Setaria viridis, (L.)Beau; test: Postemergence herbicidal evaluation (Example 147); conditions: rating scale 0-9, two to three weeks after treatment
Outline: as §1

[10] = tested on: TRZAW, Winter wheat, Tritium Aestivum, L. (Winter); test: Postemergence herbicidal evaluation (Example 147); conditions: rating scale 0-9, two to three weeks after treatment
Outline: as §1

[11] = tested on: XANST, Cocklebur, Xanthium strumariam; test: Postemergence herbicidal evaluation (Example 147); conditions: rating scale 0-9, two to three weeks after treatment
Outline: as §1

[12] = tested on: ZEAMX, Field corn, Zea mays L.; test: Postemergence herbicidal evaluation (Example 147); conditions: rating scale 0-9, two to three weeks after treatment
Outline: as §1

[13] = tested on: ABUTH, Velvetleaf, Abutilon theophrasti, Medic.; test: Preemergence herbicidal evaluation (Example 148); conditions: rating scale 0-9, two to four weeks after treatment
Outline: (§2)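 Scores reflect visual assessment of plant stand, vigour, malformation, size and chlorosis relative to an untreated control, made two to four weeks after a preemergence spray delivering about 0.125–0.250 kg/ha.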

[14] = tested on: ALOMY, Blackgrass, Alopecurus myosuroides; test: Preemergence herbicidal evaluation (Example 148); conditions: rating scale 0-9, two to four weeks after treatment
Outline: as §2

[15] = tested on: AMBEL, Ragweed, Common, Ambrosia artemiisifolia, L.; test: Preemergence herbicidal evaluation (Example 148); conditions: rating scale 0-9, two to four weeks after treatment
Outline: as §2

[16] = tested on: CHEAL, Lambsquarters, Chenopodium album, L. Common; test: Preemergence herbicidal evaluation (Example 148); conditions: rating scale 0-9, two to four weeks after treatment
Outline: as §2

[17] = tested on: DIGSA, Crabgrass, (Hairy) L, Digitaria sanguinalis, (L)Scop; test: Preemergence herbicidal evaluation (Example 148); conditions: rating scale 0-9, two to four weeks after treatment
Outline: as §2

[18] = tested on: ECHCG, Barnyardgrass, Echinochloa crusgalli, (L.)Beau; test: Preemergence herbicidal evaluation (Example 148); conditions: rating scale 0-9, two to four weeks after treatment
Outline: as §2

[19] = tested on: GLXMA, Soybean, Glycine max, (L.) Merr.; test: Preemergence herbicidal evaluation (Example 148); conditions: rating scale 0-9, two to four weeks after treatment
Outline: as §2

[20] = tested on: IPOHE, Morningglory, Ivyleaf, Ipomoea hederacea, (L)Jacq.; test: Preemergence herbicidal evaluation (Example 148); conditions: rating scale 0-9, two to four weeks after treatment
Outline: as §2

[21] = tested on: SETVI, Green foxtail, Setaria viridis, (L.)Beau; test: Preemergence herbicidal evaluation (Example 148); conditions: rating scale 0-9, two to four weeks after treatment
Outline: as §2

[22] = tested on: TRZAW, Winter wheat, Tritium Aestivum, L. (Winter); test: Preemergence herbicidal evaluation (Example 148); conditions: rating scale 0-9, two to four weeks after treatment
Outline: as §2

[23] = tested on: XANST, Cocklebur, Xanthium strumariam; test: Preemergence herbicidal evaluation (Example 148); conditions: rating scale 0-9, two to four weeks after treatment
Outline: as §2

[24] = tested on: ZEAMX, Field corn, Zea mays L.; test: Preemergence herbicidal evaluation (Example 148); conditions: rating scale 0-9, two to four weeks after treatment
Outline: as §2

SMILES: CC(C)N(C)S(=O)(=O)NC(=O)c1cc(-n2c(=O)cc(C(F)(F)F)n(N)c2=O)c(F)cc1Cl [Example 76]
- Postemergence herbicidal rating ABUTH ([1]; rate 0.016 kg/ha): 9.0
- Postemergence herbicidal rating ABUTH ([1]; rate 0.032 kg/ha): 9.0
- Postemergence herbicidal rating ALMOY ([2]; rate 0.016 kg/ha): 1.0
- Postemergence herbicidal rating ALMOY ([2]; rate 0.032 kg/ha): 1.0
- Postemergence herbicidal rating AMBEL ([3]; rate 0.016 kg/ha): 8.0
- Postemergence herbicidal rating AMBEL ([3]; rate 0.032 kg/ha): 8.0
- Postemergence herbicidal rating CHEAL ([4]; rate 0.016 kg/ha): 6.0
- Postemergence herbicidal rating CHEAL ([4]; rate 0.032 kg/ha): 6.0
- Postemergence herbicidal rating DIGSA ([5]; rate 0.016 kg/ha): 3.0
- Postemergence herbicidal rating DIGSA ([5]; rate 0.032 kg/ha): 4.0
- Postemergence herbicidal rating ECHCG ([6]; rate 0.016 kg/ha): 5.0
- Postemergence herbicidal rating ECHCG ([6]; rate 0.032 kg/ha): 6.0
- Postemergence herbicidal rating GLXMA ([7]; rate 0.016 kg/ha): 7.5
- Postemergence herbicidal rating GLXMA ([7]; rate 0.032 kg/ha): 7.5
- Postemergence herbicidal rating IPOHE ([8]; rate 0.016 kg/ha): 9.0
- Postemergence herbicidal rating IPOHE ([8]; rate 0.032 kg/ha): 9.0
- Postemergence herbicidal rating SETVI ([9]; rate 0.016 kg/ha): 5.0
- Postemergence herbicidal rating SETVI ([9]; rate 0.032 kg/ha): 6.0
- Postemergence herbicidal rating TRZAW ([10]; rate 0.016 kg/ha): 5.0
- Postemergence herbicidal rating TRZAW ([10]; rate 0.032 kg/ha): 6.0
- Postemergence herbicidal rating XANST ([11]; rate 0.016 kg/ha): 9.0
- Postemergence herbicidal rating XANST ([11]; rate 0.032 kg/ha): 9.0
- Postemergence herbicidal rating ZEAMX ([12]; rate 0.016 kg/ha): 5.5
- Postemergence herbicidal rating ZEAMX ([12]; rate 0.032 kg/ha): 6.5
- Preemergence herbicidal rating ABUTH ([13]; rate 0.125 kg/ha): 9.0
- Preemergence herbicidal rating ABUTH ([13]; rate 0.25 kg/ha): 9.0
- Preemergence herbicidal rating ALMOY ([14]; rate 0.125 kg/ha): 0.0
- Preemergence herbicidal rating ALMOY ([14]; rate 0.25 kg/ha): 2.0
- Preemergence herbicidal rating AMBEL ([15]; rate 0.125 kg/ha): 8.0
- Preemergence herbicidal rating AMBEL ([15]; rate 0.25 kg/ha): 9.0
- Preemergence herbicidal rating CHEAL ([16]; rate 0.125 kg/ha): 8.0
- Preemergence herbicidal rating CHEAL ([16]; rate 0.25 kg/ha): 9.0
- Preemergence herbicidal rating DIGSA ([17]; rate 0.125 kg/ha): 2.0
- Preemergence herbicidal rating DIGSA ([17]; rate 0.25 kg/ha): 3.0
- Preemergence herbicidal rating ECHCG ([18]; rate 0.125 kg/ha): 1.0
- Preemergence herbicidal rating ECHCG ([18]; rate 0.25 kg/ha): 2.0
- Preemergence herbicidal rating GLXMA ([19]; rate 0.125 kg/ha): 1.0
- Preemergence herbicidal rating GLXMA ([19]; rate 0.25 kg/ha): 3.0
- Preemergence herbicidal rating IPOHE ([20]; rate 0.125 kg/ha): 5.0
- Preemergence herbicidal rating IPOHE ([20]; rate 0.25 kg/ha): 9.0
- Preemergence herbicidal rating SETVI ([21]; rate 0.125 kg/ha): 1.0
- Preemergence herbicidal rating SETVI ([21]; rate 0.25 kg/ha): 2.0
- Preemergence herbicidal rating TRZAW ([22]; rate 0.125 kg/ha): 0.0
- Preemergence herbicidal rating TRZAW ([22]; rate 0.25 kg/ha): 1.0
- Preemergence herbicidal rating XANST ([23]; rate 0.125 kg/ha): 3.0
- Preemergence herbicidal rating XANST ([23]; rate 0.25 kg/ha): 5.0
- Preemergence herbicidal rating ZEAMX ([24]; rate 0.125 kg/ha): 1.0
- Preemergence herbicidal rating ZEAMX ([24]; rate 0.25 kg/ha): 1.0
